In patent EP4813991A1 (iLeadBMS Co., Ltd., priority 2023, dated 2025):

How the values were obtained:
Format in all cases: cell-based
Settings in all cases: 72 hours, relative IC50
AGS cells = test: Gastric cancer cell proliferation inhibitory activity (CellTiter Glo), AGS
Description: (§1) Experiments were performed using four types of gastric cancer cell lines (AGS, SNU-1, KATO-III, and MKN45) to measure the cell proliferation inhibitory ability of each Example compound. For AGS cells, 90 µL of cell suspension was dispensed into a 96-well plate using F-12K (Gibco) medium containing 10 % FBS, followed by incubation in a cell incubator at 37 °C and 5 % CO2. For SNU-1 and MKN45 cells, 90 µL of cell suspension was dispensed into a 96-well plate using RPMI1640 (Gibco) medium containing 10 % FBS, followed by incubation in a cell incubator at 37 °C and 5 % CO2. For KATO-III cells, 90 uL of cell suspension was dispensed into a 96-well plate using IMDM (Gibco) medium containing 10 % FBS, followed by incubation in a cell incubator at 37 °C and 5 % CO2. The next day, each Example compound dissolved and diluted in DMSO across 9 concentration ranges and a DMSO control group were added at 10 µL to each 96-well plate and treated for 72 hours. After completion of the compound treatment, 100 µL of CellTiter Glo (Promega) reagent was added to each well of the 96-well plate, followed by shaking for 10 minutes and standing at room temperature for 10 minutes. Luminescence signals were measured after inserting the 96-well plate into an Envision plate reader (PerkinElmer). Relative IC50 values were calculated by fitting a dose-response curve using XLfit (IDBS Ltd) software.
(§2) The gastric cancer cell proliferation inhibitory activities of the Example compounds measured by the method described above were evaluated according to the following criteria, and the results are presented in Table 16.

MKN45 cells = test: Gastric cancer cell proliferation inhibitory activity (CellTiter Glo), MKN45
Description: as §1, §2

KATO-III cells = test: Gastric cancer cell proliferation inhibitory activity (CellTiter Glo), KATO-III
Description: as §1, §2

SNU-1 = test: Gastric cancer cell proliferation inhibitory activity (CellTiter Glo), SNU-1
Description: as §1, §2

Measured: IC50

N.N.[Cl][Pt][Cl] [Cisplatin, reference compound]
> 1000 nM: all assays above
